Earlier results in US9707259B2, “Magnetic diffusional patch” (METUAS MEDIKAL SAGLIK HIZ-METLERI DANISMANLIK IHRACAT …, priority 2011, dated 2017).

What was measured:
[1] = tested on: thromboxane and leukotriene B4 synthesis
[2] = tested on: activated human monocytes
[3] = experimental animals, rheumatoid arthritis

Structure (SMILES)	effect on lipooxygenase enzyme (lipooxygenase enzymes)	synthesis of thromboxane and leukotriene B4 from eicosanoids [1]	effect on cyclooxygenase (COX) enzyme (cyclooxygenase (COX))	levels of pro-inflammation cytokines TNF-alpha and interleukin (IL)-1beta (rheumatoid arthritis; [3])	severity of the disease (rheumatoid arthritis; [3])	induced arthritis with the aid of collagen (rheumatoid arthritis; experimental studies)	inflammation mediators [2]
CC1=CC(=O)C(C(C)C)=CC1=O [thymoquinone]	blocks	inhibits	blocks	reduction	decreases	able to suppress	
CC1=CCC(O)(C(C)C)CC1 (stereo not shown) [4-terpineol]							suppress
